Experimental data published in patent US8242166B2, “C(10) ethyl ester and C(10) cyclopropyl ester substituted taxanes” (Florida State University Research Foundation, Inc., priority 2008, dated 2012).
Like-named read-outs stand apart in the source and are kept apart here.

Key:
[1] = system: HT29 human tumor xenografts; experiment: HT29 xenograft study e133 (Example 24); type: in vivo, nude mice
Protocol: […]. Control mice received the 5% E 95% L-II vehicle q4d×4. A positive reference group received i.v. therapy with compound 2, at 30 mg/kg once weekly for three weeks (q7d×3), in a vehicle of 7.5% ethanol and 7.5% Tween® 80 in 5% dextrose in water. […] The endpoint volume for tumor growth was 1,000 mm^3. […].

[2] = system: human HT29 colon carcinoma xenografts
[3] = system: SKMES lung tumors; experiment: SKMES xenograft study, i.v. single dose (Example 20); type: in vivo, nude mice; conditions: 30 mg/kg iv qd × 1
Protocol: This study was conducted at PRC as previously described. SKMES is a human lung cancer cell line. In the present study, compound 2 and all agents were administered as i.v. monotherapies in a single 30 mg/kg dose (qd×1). […] Control mice received this vehicle qd×1. […] The endpoint volume for tumor growth was 1,500 mm^3. The study was terminated on Day 23.

[4] = system: MX1 human tumor xenografts; experiment: MX1 xenograft study e220, i.v. q4d×4 (Example 18); conditions: for maximum group mean BW loss: on D19
[5] = system: human SKMES lung carcinoma xenografts; experiment: SKMES xenograft study e82, i.v. q4d×4 (Example 21); type: in vivo, nude mice; conditions: 30 mg/kg i.v. q4d×4; five mice

CC(=O)O[C@@]12CO[C@@H]1C[C@H](O)[C@@]1(C)C(=O)[C@H](O)C3=C(C)[C@@H](OC(=O)[C@H](O)[C@@H](NC(=O)OC(C)(C)C)c4ccccc4)C[C@@](O)([C@@H](OC(=O)c4ccccc4)[C@H]21)C3(C)C [Docetaxel, docetaxel, reference compound]
# Death NTR ([1]; 30 mg/kg iv Q7d × 3, n=6): 0 | # Death TR ([1]; 30 mg/kg iv Q7d × 3, n=6): 0 | LTTFS ([2]; 25 mg/kg q7d×3, six mice): one | PR responses ([2]; 25 mg/kg q7d×3, six mice): 4 | Number of Death NTR ([2]; mouse, in vivo): 0 | Number of Death TR ([2]; mouse, in vivo): 0 | % TGD [3]: 61.94% | MTV (n), Day 23 [3]: 166.75 (4) mm^3 | Median TTE [3]: 23 days | T-C [3]: 8.8 days | CR (complete regression) ([3]; n=5): 0 | NTR NTRm ([3]; n=5): 0 | PR (partial regression) ([3]; n=5): 2 | TFS (tumor-free survivor) ([3]; n=5): 0 | TR (treatment-related death) ([3]; n=5): 0 | % TGD ([4]; 25 mg/kg iv qwk × 3): 217.17% | BW Nadir ([4]; 25 mg/kg iv qwk × 3): −10.9% (22) | MTV (n), Day 57 ([4]; 25 mg/kg iv qwk × 3): 0.00 (5) mm^3 | Median TTE ([4]; 25 mg/kg iv qwk × 3): 57 days | T-C ([4]; 25 mg/kg iv qwk × 3): 39.03 days | CR (complete regression) ([4]; 25 mg/kg iv qwk × 3, n=5): 5 | NTR (non-treatment-related death) ([4]; 25 mg/kg iv qwk × 3, n=5): 0 | PR (partial regression) ([4]; 25 mg/kg iv qwk × 3, n=5): 0 | TFS (tumor-free survivor) ([4]; 25 mg/kg iv qwk × 3, n=5): 5 | TR (treatment-related death) ([4]; 25 mg/kg iv qwk × 3, n=5): 0

CCC(=O)O[C@H]1C(=O)[C@@]2(C)C([C@H](OC(=O)c3ccccc3)[C@]3(O)C[C@H](OC(=O)[C@H](O)[C@@H](NC(=O)OC4CCC4)c4cccs4)C(C)=C1C3(C)C)[C@]1(OC(C)=O)CO[C@@H]1C[C@@H]2O (stereo partly shown) [Compound 19244]
MTV ([1]; 30 mg/kg i.v. q4d×4): 0 | TGD ([1]; 30 mg/kg i.v. q4d×4): 172% | 55-day survivors ([1]; 30 mg/kg i.v. q4d×4, six mice): five | Max. % BW Loss; Day ([1]; 30 mg/kg iv Q4d × 4): −17.3%; Day 17 | # Death NTR ([1]; 30 mg/kg iv Q4d × 4, n=6): 0 | LTTFS ([2]; 30 mg/kg i.v. q4d×4, six mice): 1 | regression responses ([2]; 30 mg/kg i.v. q4d×4, six mice): six | % TGD [3]: 61.94% | MTV (n), Day 23 [3]: 352.00 (5) mm^3 | Median TTE [3]: 23 days | T-C [3]: 8.8 days | NTR NTRm ([3]; n=5): 0 | PR (partial regression) ([3]; n=5): 0 | TFS (tumor-free survivor) ([3]; n=5): 1 | TR (treatment-related death) ([3]; n=5): 0 | TFS [5]: 3 | partial response [5]: two | % TGD ([4]; 7.5 mg/kg iv q4d × 4): 217.17% | BW Nadir ([4]; 7.5 mg/kg iv q4d × 4): −3.1% (19) | MTV (n), Day 57 ([4]; 7.5 mg/kg iv q4d × 4): 0.00 (5) mm^3 | Median TTE ([4]; 7.5 mg/kg iv q4d × 4): 57 days | T-C ([4]; 7.5 mg/kg iv q4d × 4): 39.03 days | CR (complete regression) ([4]; 7.5 mg/kg iv q4d × 4, n=5): 5 | NTR (non-treatment-related death) ([4]; 7.5 mg/kg iv q4d × 4, n=5): 0 | PR (partial regression) ([4]; 7.5 mg/kg iv q4d × 4, n=5): 0 | TFS (tumor-free survivor) ([4]; 7.5 mg/kg iv q4d × 4, n=5): 3 | TR (treatment-related death) ([4]; 7.5 mg/kg iv q4d × 4, n=5): 0 | transient CRs ([4]; 7.5 mg/kg iv q4d × 4, n=5): 2 | maximum group mean BW loss ([4]; 7.5 mg/kg iv q4d × 4): 3.1% | % TGD ([4]; 15 mg/kg iv q4d × 4): 217.17% | BW Nadir ([4]; 15 mg/kg iv q4d × 4): −7.6% (19) | MTV (n), Day 57 ([4]; 15 mg/kg iv q4d × 4): 0.00 (5) mm^3 | Median TTE ([4]; 15 mg/kg iv q4d × 4): 57 days | T-C ([4]; 15 mg/kg iv q4d × 4): 39.03 days | CR (complete regression) ([4]; 15 mg/kg iv q4d × 4, n=5): 5 | NTR (non-treatment-related death) ([4]; 15 mg/kg iv q4d × 4, n=5): 0 | PR (partial regression) ([4]; 15 mg/kg iv q4d × 4, n=5): 0 | TFS (tumor-free survivor) ([4]; 15 mg/kg iv q4d × 4, n=5): 5 | TR (treatment-related death) ([4]; 15 mg/kg iv q4d × 4, n=5): 0 | maximum group mean BW loss ([4]; 15 mg/kg iv q4d × 4): 7.6% | % TGD ([4]; 30 mg/kg iv q4d × 4): 217.17% | BW Nadir ([4]; 30 mg/kg iv q4d × 4): −18.9% (19) | MTV (n), Day 57 ([4]; 30 mg/kg iv q4d × 4): 0.00 (5) mm^3 | Median TTE ([4]; 30 mg/kg iv q4d × 4): 57 days | T-C ([4]; 30 mg/kg iv q4d × 4): 39.03 days | CR (complete regression) ([4]; 30 mg/kg iv q4d × 4, n=5): 4 | NTR (non-treatment-related death) ([4]; 30 mg/kg iv q4d × 4, n=5): 0 | PR (partial regression) ([4]; 30 mg/kg iv q4d × 4, n=5): 1 | TFS (tumor-free survivor) ([4]; 30 mg/kg iv q4d × 4, n=5): 4 | TR (treatment-related death) ([4]; 30 mg/kg iv q4d × 4, n=5): 0 | maximum group mean BW loss ([4]; 30 mg/kg iv q4d × 4): 18.9%
